Data as given in US6352958B1, “Cycloimido-substituted benzofused heterocyclic herbicides” (FMC Corporation, priority 1997, dated 2002).

Assays:
Assay type in all cases: in vivo
[1] = system: soybean (Glycine max var. Winchester); test: Postemergence herbicidal activity, soybean; conditions: rate of application 0.3 Kg/Ha, rated after 12-17 days
Method: (§1) The benzofused heterocyclic compounds of this invention were tested for pre- and postemergence herbicidal activity using a variety of crops and weeds. The test plants included soybean (Glycine max var. Winchester), field corn (Zea mays var. Pioneer 3732), wheat (Triticum aestivum var. Lew), morningglory (Ipomea lacunosa or Ipomea hederacea), velvetleaf (Abutilon theophrasti), green foxtail (Setaria viridis), Johnsongrass (Sorghum halepense), blackgrass (Aloepecurus myosuroides), common chickweed (Stellaria media), and common cocklebur (Xanthium strumarium L.).
(§2) For preemergence testing, two disposable fiber flats (8 cm×15 cm×25 cm) for each rate of application of each candidate herbicide were filled to an approximate depth of 6.5 cm with steam-sterilized sandy loam soil. The soil was leveled and impressed with a template to provide five evenly spaced furrows 13 cm long and 0.5 cm deep in each flat. Seeds of soybean, wheat, corn, green foxtail, and johnsongrass were planted in the furrows of the first flat, and seeds of velvetleaf, morningglory, common chickweed, cocklebur, and blackgrass were planted in the furrows of the second flat. The five-row template was employed to firmly press the seeds into place. A topping soil of equal portions of sand and sandy loam soil was placed uniformly on top of each flat to a depth of approximately 0.5 cm. Flats for postemergence testing were prepared in the same manner except that they were planted 9-14 days prior to the preemergence flats and were placed in a greenhouse and watered, thus allowing the seeds to germinate and the foliage to develop.
(§3) In both pre- and postemergence tests, a stock solution of the candidate herbicide was prepared by dissolving 0.27 g of the compound in 20 mL of water/acetone (50/50) containing 0.5% v/v sorbitan monolaurate. For an application rate of 3000 g/ha of herbicide a 10 mL portion of the stock solution was diluted with water/acetone (50/50) to 45 mL.
(§4) The preemergence flats were initially subjected to a light water spray. The four flats were placed two by two along a conveyor belt (i.e., the two preemergence followed by the two postemergence flats). The conveyor belt fed under a spray nozzle mounted about ten inches above the post-emergent foliage. The preemergent flats were elevated on the belt so that the soil surface was at the same level below the spray nozzle as the foliage canopy of the postemergent plants. The spray of herbicidal solution was commenced and once stabilized, the flats were passed under the spray at a speed to receive a coverage equivalent of 100 L/ha. At this coverage the application rates are those shown in the above table for the individual herbicidal solutions. The preemergence flats were watered immediately thereafter, placed in the greenhouse and watered regularly at the soil surface. The postemergence flats were immediately placed in the green-house and not watered until 24 hours after treatment with the test solution. Thereafter they were regularly watered at ground level. After 12-17 days the plants were examined and the phytotoxicity data were recorded.
(§5) Phytotoxicity data were taken as percent control. Percent control was determined by a method similar to the 0 to 100 rating system disclosed in “Research Methods in Weed Science,” 2nd ed., B. Truelove, Ed.; Southern Weed Science Society; Auburn University, Auburn, Ala., 1977.

[2] = system: green foxtail (Setaria viridis); test: Preemergence herbicidal activity, green foxtail; conditions: Rate of Application 0.3 Kg/Ha, examined after 12-17 days
Method: as §1, §2, §3, §4, §5

[3] = system: common cocklebur (Xanthium strumarium L.); test: Postemergence herbicidal activity, cocklebur; conditions: rate of application 0.3 Kg/Ha, rated after 12-17 days
Method: as §1, §2, §3, §4, §5

[4] = system: velvetleaf (Abutilon theophrasti); test: Postemergence herbicidal activity, velvetleaf; conditions: rate of application 0.3 Kg/Ha, rated after 12-17 days
Method: as §1, §2, §3, §4, §5

[5] = system: green foxtail (Setaria viridis); test: Postemergence herbicidal activity, green foxtail; conditions: rate of application 0.3 Kg/Ha, rated after 12-17 days
Method: as §1, §2, §3, §4, §5

[6] = system: Johnsongrass (Sorghum halepense); test: Preemergence herbicidal activity, johnsongrass; conditions: Rate of Application 0.3 Kg/Ha, examined after 12-17 days
Method: as §1, §2, §3, §4, §5

[7] = system: common chickweed (Stellaria media); test: Postemergence herbicidal activity, chickweed; conditions: rate of application 0.3 Kg/Ha, rated after 12-17 days
Method: as §1, §2, §3, §4, §5

[8] = system: field corn (Zea mays var. Pioneer 3732); test: Preemergence herbicidal activity, corn; conditions: Rate of Application 0.3 Kg/Ha, examined after 12-17 days
Method: as §1, §2, §3, §4, §5

[9] = system: common chickweed (Stellaria media); test: Preemergence herbicidal activity, chickweed; conditions: Rate of Application 0.3 Kg/Ha, examined after 12-17 days
Method: as §1, §2, §3, §4, §5

[10] = system: wheat (Triticum aestivum var. Lew); test: Postemergence herbicidal activity, wheat; conditions: rate of application 0.3 Kg/Ha, rated after 12-17 days
Method: as §1, §2, §3, §4, §5

[11] = system: soybean (Glycine max var. Winchester); test: Preemergence herbicidal activity, soybean; conditions: Rate of Application 0.3 Kg/Ha, examined after 12-17 days
Method: as §1, §2, §3, §4, §5

[12] = system: morningglory (Ipomea lacunosa or Ipomea hederacea); test: Preemergence herbicidal activity, morningglory; conditions: Rate of Application 0.3 Kg/Ha, examined after 12-17 days
Method: as §1, §2, §3, §4, §5

[13] = system: morningglory (Ipomea lacunosa or Ipomea hederacea); test: Postemergence herbicidal activity, morningglory; conditions: rate of application 0.3 Kg/Ha, rated after 12-17 days
Method: as §1, §2, §3, §4, §5

[14] = system: field corn (Zea mays var. Pioneer 3732); test: Postemergence herbicidal activity, corn; conditions: rate of application 0.3 Kg/Ha, rated after 12-17 days
Method: as §1, §2, §3, §4, §5

[15] = system: Johnsongrass (Sorghum halepense); test: Postemergence herbicidal activity, johnsongrass; conditions: rate of application 0.3 Kg/Ha, rated after 12-17 days
Method: as §1, §2, §3, §4, §5

[16] = system: wheat (Triticum aestivum var. Lew); test: Preemergence herbicidal activity, wheat; conditions: Rate of Application 0.3 Kg/Ha, examined after 12-17 days
Method: as §1, §2, §3, §4, §5

[17] = system: common cocklebur (Xanthium strumarium L.); test: Preemergence herbicidal activity, cocklebur; conditions: Rate of Application 0.3 Kg/Ha, examined after 12-17 days
Method: as §1, §2, §3, §4, §5

[18] = system: velvetleaf (Abutilon theophrasti); test: Preemergence herbicidal activity, velvetleaf; conditions: Rate of Application 0.3 Kg/Ha, examined after 12-17 days
Method: as §1, §2, §3, §4, §5

| Compound | Postemergence herbicidal activity (% control) SOY [1] [%] | PREEMERGENCE HERBICIDAL ACTIVITY (% CONTROL) SETVI [2] [%] | Postemergence herbicidal activity (% control) XANPE [3] [%] | Postemergence herbicidal activity (% control) ABUTH [4] [%] | Postemergence herbicidal activity (% control) SETVI [5] [%] | PREEMERGENCE HERBICIDAL ACTIVITY (% CONTROL) SORHA [6] [%] | Postemergence herbicidal activity (% control) STEME [7] [%] | PREEMERGENCE HERBICIDAL ACTIVITY (% CONTROL) CRN [8] [%] | PREEMERGENCE HERBICIDAL ACTIVITY (% CONTROL) STEME [9] [%] | Postemergence herbicidal activity (% control) WHT [10] [%] | PREEMERGENCE HERBICIDAL ACTIVITY (% CONTROL) SOY [11] [%] | PREEMERGENCE HERBICIDAL ACTIVITY (% CONTROL) IPOSS [12] [%] | Postemergence herbicidal activity (% control) IPOSS [13] [%] | Postemergence herbicidal activity (% control) CRN [14] [%] | Postemergence herbicidal activity (% control) SORHA [15] [%] | PREEMERGENCE HERBICIDAL ACTIVITY (% CONTROL) WHT [16] [%] | PREEMERGENCE HERBICIDAL ACTIVITY (% CONTROL) XANPE [17] [%] | PREEMERGENCE HERBICIDAL ACTIVITY (% CONTROL) ABUTH [18] [%] |
| --- | --- | --- | --- | --- | --- | --- | --- | --- | --- | --- | --- | --- | --- | --- | --- | --- | --- | --- |
| Cn1c(C(F)(F)F)cc(=O)n(-c2ccc(Cl)c3cc(C(C)(C)C)oc23)c1=O [Compound 226] | 70 | 100 | 90 | 100 | 100 | 80 | 80 | 70 | 90 | 40 | 70 | 90 | 95 | 80 | 80 | 50 | 60 | 100 |
| Cn1c(C(F)(F)F)cc(=O)n(-c2ccc(Cl)c3cc(C=O)oc23)c1=O [Compound 265] | 70 | 80 | 20 | 100 | 40 | 60 | 30 | 80 | 20 | 40 | 70 | 100 | 100 | 60 | 20 | 40 | 70 | 90 |
| CC(O)Cc1cc2c(Cl)cc(F)c(-n3c(=O)cc(C(F)(F)F)n(C)c3=O)c2o1 (stereo not drawn) [Compound 243] | 95 | 100 | 100 | 100 | 100 | 100 | 100 | 95 | 100 | 70 | 100 | 100 | 100 | 95 | 100 | 80 | 100 | 100 |
| Cn1c(C(F)(F)F)cc(=O)n(-c2ccc(Cl)c3cc(CBr)oc23)c1=O [Compound 232] | 75 | 40 | 40 | 100 | 30 | 25 | 20 | 50 | 20 | 50 | 20 | 80 | 80 | 30 | 10 | 30 | 10 | 90 |
| CCCc1cc2c(Cl)cc(F)c(-n3c(=O)cc(C(F)(F)F)n(C)c3=O)c2o1 [Compound 223] | 95 | 100 | 100 | 100 | 100 | 100 | 100 | 80 | 100 | 40 | 100 | 100 | 100 | 90 | 100 | 50 | 90 | 100 |
| CC(O)c1cc2c(Cl)cc(F)c(-n3c(=O)cc(C(F)(F)F)n(C)c3=O)c2o1 (stereo not drawn) [Compound 240] | 95 | 100 | 100 | 100 | 100 | 100 | 100 | 95 | 100 | 95 | 100 | 100 | 100 | 100 | 100 | 95 | 100 | 100 |
| Cn1c(C(F)(F)F)cc(=O)n(-c2c(F)cc(F)c3cc(C(C)(C)C)oc23)c1=O [Compound 228] | 90 | 100 | 95 | 100 | 100 | 100 | 80 | 95 | 100 | 50 | 100 | 100 | 100 | 80 | 90 | 80 | 90 | 100 |
